According to US8420655B2, “Benzimidazole inhibitors of leukotriene production” (Boehringer Ingelheim International GmbH, priority 2009, dated 2013):

These compounds were tested against T1, recombinant human FLAP protein (Homo sapiens, UniProt P20292) (assay: FLAP binding assay, displacement of iodinated (125I) FLAP inhibitor, Scintillation Proximity Assay format). Settings: [125I]L-691,831 probe, membrane protein from sf9 cells; read-out: hFLAP binding IC50.
T1 construct: made in house; host or cells: Sf9 insect cells (membrane fraction, 100,000 x g pellet)
T1 sequence (P20292 1-161): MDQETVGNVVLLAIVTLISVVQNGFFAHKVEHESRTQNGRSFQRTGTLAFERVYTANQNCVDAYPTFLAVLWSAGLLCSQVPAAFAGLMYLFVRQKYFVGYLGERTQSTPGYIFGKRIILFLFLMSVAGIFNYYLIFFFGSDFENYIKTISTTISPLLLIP
Protocol: Compounds are assessed for the ability to bind to FLAP in a binding assay that measures compound-specific displacement of an iodinated (^125I) FLAP inhibitor via a Scintillation Proximity Assay format (adapted from S. Charleson et al., Mol. Pharmacol., 1992, 41, 873-879).
Cell pellets produced from sf9 insect cells expressing recombinant human FLAP protein are resuspended in buffer A [15 mM Tris-HCl (pH 7.5), 2 mM MgCl2, 0.3 mM EDTA, 1 mM PMSF]. The cells are lysed with a Dounce homogenizer and the material is centrifuged at 10,000×g for 10 minutes. The supernatant is then collected and centrifuged at 100,000×g for 60 minutes. To prepare membrane protein for an assay, an aliquot of the 100,000×g pellet is resuspended in 1 ml of buffer A, Dounce homogenized, and finally subjected to polytron mixing (30 seconds). Membrane protein (25 μl, 5 μg) is mixed with WGA SPA beads (Amersham) and stirred for 1 h. To an assay plate (Perkin Elmer FlexiPlate) is added 25 μl of test compound prepared in Binding buffer [100 mM Tris (pH 7.5), 140 mM NaCl, 5% glycerol, 2 mM EDTA, 0.5 mM TCEP, 0.05% Tween 20], 25 μl of [^125I]L-691,831 (an iodinated analog of MK-591, Charleson et al. Mol. Pharmacol., 41, 873-879, 1992) and finally 50 μl of the bead/protein mixture. (final concentrations: beads, 200 μg/well; protein, 5 μg/well; [^125I] probe, 0 08 nM/well (17 nCi/well). The plates are shaken for 2 h before reading on a Microbeta plate reader. Non-specific binding is determined by the addition of 10 μM cold L-691,831 compound.

Row | SMILES | IC50
1 | COC(=O)C(C)(C)Oc1ccc(-c2nc3cc(-c4cnc(N)nc4)ccc3n2C(C)(C)C)c(-n2cncn2)c1 [2-{4-[5-(2-Amino-pyrimidin-5-yl)-1-tert-butyl-1H-benzoimidazol-2-yl]-3-[1,2,4]triazol-1-yl-phenoxy}-2-methyl-propionic acid methyl ester] | 7.2 nM
2 | CC(C)(C)n1c(-c2cc(OC3CCOC3)ccc2-n2cncn2)nc2cc(-c3cnc(N)nc3)ccc21 (centres unmarked) [5-{1-tert-Butyl-2-[5-(tetrahydro-furan-3-yloxy)-2-1,2,4-triazol-1-yl-phenyl]-1H-benzimidazol-5-yl}-pyrimidin-2-ylamine] | 6.9 nM
3 | COC(=O)c1cc(-c2ccc(-n3cncn3)c(-c3nc4cc(-c5cnc(N)nc5)ccc4n3C(C)(C)C)c2)cs1 [4-{3-[5-(2-Amino-pyrimidin-5-yl)-1-tert-butyl-1H-benzoimidazol-2-yl]-4-[1,2,4]triazol-1-yl-phenyl}-thiophene-2-carboxylic acid methyl ester] | 5.2 nM
4 | Cc1ncnn1-c1ccccc1-c1nc2cc(-c3cnc(N)nc3)ccc2n1C(C)(C)C [5-{1-tert-Butyl-2-[2-(5-methyl-1,2,4-triazol-1-yl)-phenyl]-1H-benzimidazol-5-yl}-pyrimidin-2-ylamine] | 3.3 nM
5 | CC(C)(C)n1c(-c2ccccc2-n2cncn2)nc2cc(-c3cnc(N)nc3)ccc21 | 2.7 nM
6 | CC(C)(C)n1c(-c2cc(C#N)ccc2-n2cnc(-c3ccccc3Cl)n2)nc2cc(-c3cnc(N)nc3)ccc21 [3-[5-(2-Amino-pyrimidin-5-yl)-1-tert-butyl-1H-benzoimidazol-2-yl]-4-[3-(2-chloro-phenyl)-[1,2,4]triazol-1-yl]-benzonitrile] | 4.4 nM
7 | Cn1ncnc1-c1ccccc1-c1nc2cc(-c3cnc(N)nc3)ccc2n1C(C)(C)C [5-{1-tert-Butyl-2-[2-(2-methyl-2H-1,2,4-triazol-3-yl)-phenyl]-1H-benzimidazol-5-yl}-pyrimidin-2-ylamine] | 6.1 nM
8 | CNC(=O)c1ccc(-n2cncn2)c(-c2nc3cc(-c4cnc(N)nc4)ccc3n2C(C)(C)C)c1 [3-[5-(2-Amino-pyrimidin-5-yl)-1-tert-butyl-1H-benzoimidazol-2-yl]-N-methyl-4-[1,2,4]triazol-1-yl-benzamide] | 20 nM
9 | COc1ccc(-n2ccc(C)n2)c(-c2nc3cc(-c4cnc(N)nc4)ccc3n2C(C)(C)C)c1 [5-{1-tert-Butyl-2-[5-methoxy-2-(3-methyl-pyrazol-1-yl)-phenyl]-1H-benzimidazol-5-yl}-pyrimidin-2-ylamine] | 8.8 nM
10 | CC(C)(COc1ccc(-n2cncn2)c(-c2nc3cc(-c4cnc(N)nc4)ccc3n2C(C)(C)C)c1)C(=O)O [3-{3-[5-(2-Amino-pyrimidin-5-yl)-1-tert-butyl-1H-benzimidazol-2-yl]-4-1,2,4-triazol-1-yl-phenoxy}-2,2-dimethyl-propionic acid] | 5.9 nM
11 | Cc1c(-c2ccc(-n3cncn3)c(-c3nc4cc(-c5cnc(N)nc5)ccc4n3C(C)(C)C)c2)cnn1C [5-{1-tert-Butyl-2-[5-(1,5-dimethyl-1H-pyrazol-4-yl)-2-[1,2,4]triazol-1-yl-phenyl]-1H-benzoimidazol-5-yl}-pyrimidin-2-ylamine] | 4 nM
12 | CC(C)(C)n1c(-c2cc(I)ccc2-n2cncn2)nc2cc(-c3cnc(N)nc3)ccc21 [5-[1-tert-Butyl-2-(5-iodo-2-1,2,4-triazol-1-yl-phenyl)-1H-benzimidazol-5-yl]-pyrimidin-2-ylamine] | 2.7 nM
13 | CCN(CC)C(=O)Oc1ccc(-n2cncn2)c(-c2nc3cc(-c4cnc(N)nc4)ccc3n2C(C)(C)C)c1 [Diethyl-carbamic acid 3-[5-(2-amino-pyrimidin-5-yl)-1-tert-butyl-1H-benzimidazol-2-yl]-4-1,2,4-triazol-1-yl-phenyl ester] | 8.8 nM
14 | CC(C)(C)n1c(-c2cc(C#N)ccc2-n2cncn2)nc2cc(-c3cnc(N)nc3)ccc21 [3-[5-(2-Amino-pyrimidin-5-yl)-1-tert-butyl-1H-benzimidazol-2-yl]-4-1,2,4-triazol-1-yl-benzonitrile] | 3.1 nM
15 | COC(=O)c1ncn(-c2ccc(C#N)cc2-c2nc3cc(-c4cnc(N)nc4)ccc3n2C(C)(C)C)n1 [1-{2-[5-(2-Amino-pyrimidin-5-yl)-1-tert-butyl-1H-benzoimidazol-2-yl]-4-cyano-phenyl}-1H-[1,2,4]triazole-3-carboxylic acid methyl ester] | 15.9 nM
16 | CC(C)(C)n1c(-c2cc(CO)ccc2-n2cncn2)nc2cc(-c3cnc(N)nc3)ccc21 [{3-[5-(2-Amino-pyrimidin-5-yl)-1-tert-butyl-1H-benzoimidazol-2-yl]-4-[1,2,4]triazol-1-yl-phenyl}-methanol] | 10.4 nM

Stronger by IC50, values ahead:

Row | IC50 | SMILES
17 | 2.2 nM | CC(C)Oc1ccc(-n2cncn2)c(-c2nc3cc(-c4cnc(N)nc4)ccc3n2C(C)(C)C)c1 [5-[1-tert-Butyl-2-(5-isopropoxy-2-1,2,4-triazol-1-yl-phenyl)-1H-benzimidazol-5-yl]-pyrimidin-2-ylamine]
18 | 2.1 nM | CC(C)(C)n1c(-c2ccccc2-n2cncn2)nc2cc(-c3cnc4c(c3)CCN4)ccc21 [1-tert-Butyl-5-(2,3-dihydro-1H-pyrrolo[2,3-b]pyridin-5-yl)-2-(2-1,2,4-triazol-1-yl-phenyl)-1H-benzimidazole]
19 | 1.5 nM | COc1ccc(-n2ncnc2C)c(-c2nc3cc(-c4cnc(N)nc4)ccc3n2C(C)(C)C)c1 [5-{1-tert-Butyl-2-[5-methoxy-2-(5-methyl-1,2,4-triazol-1-yl)-phenyl]-1H-benzimidazol-5-yl}-pyrimidin-2-ylamine]
20 | 1.4 nM | Cc1ncn(-c2ccc(Cl)cc2-c2nc3cc(-c4cnc(N)nc4)ccc3n2C(C)(C)C)n1 [5-{1-tert-Butyl-2-[5-chloro-2-(3-methyl-1,2,4-triazol-1-yl)-phenyl]-1H-benzimidazol-5-yl}-pyrimidin-2-ylamine]
21 | 1.7 nM | CC(C)(C)n1c(-c2cc(F)ccc2-n2cccn2)nc2cc(-c3cnc(N)nc3)ccc21 [5-[1-tert-Butyl-2-(5-fluoro-2-pyrazol-1-yl-phenyl)-1H-benzimidazol-5-yl]-pyrimidin-2-ylamine]
22 | 2.4 nM | CC(C)(C)n1c(-c2cc(C(F)(F)F)ccc2-n2cncn2)nc2cc(-c3cnc(N)nc3)ccc21
23 | 1.7 nM | CC(C)(C)n1c(-c2cccc(F)c2-n2cncn2)nc2cc(-c3cnc(N)nc3)ccc21 [5-[1-tert-Butyl-2-(3-fluoro-2-1,2,4-triazol-1-yl-phenyl)-1H-benzimidazol-5-yl]-pyrimidin-2-ylamine]
24 | 0.83 nM | CC(C)(C)n1c(-c2cc(C#N)ccc2-n2cnc(Br)n2)nc2cc(-c3cnc(N)nc3)ccc21 [3-[5-(2-Amino-pyrimidin-5-yl)-1-tert-butyl-1H-benzoimidazol-2-yl]-4-(3-bromo-[1,2,4]triazol-1-yl)-benzonitrile]
25 | 1.6 nM | COc1ccc(-n2cc(Cl)cn2)c(-c2nc3cc(-c4cnc(N)nc4)ccc3n2C(C)(C)C)c1 [5-{1-tert-Butyl-2-[2-(4-chloro-pyrazol-1-yl)-5-methoxy-phenyl]-1H-benzimidazol-5-yl}-pyrimidin-2-ylamine]
26 | 1.8 nM | Cc1nc(-c2ccccc2-c2nc3cc(-c4cnc(N)nc4)ccc3n2C(C)(C)C)n(C)n1 [5-{1-tert-Butyl-2-[2-(2,5-dimethyl-2H-1,2,4-triazol-3-yl)-phenyl]-1H-benzimidazol-5-yl}-pyrimidin-2-ylamine]
27 | 1.6 nM | Cn1ncnc1-c1ccc(F)cc1-c1nc2cc(-c3cnc(N)nc3)ccc2n1C(C)(C)C [5-{1-tert-Butyl-2-[5-fluoro-2-(2-methyl-2H-1,2,4-triazol-3-yl)-phenyl]-1H-benzimidazol-5-yl}-pyrimidin-2-ylamine]
28 | 1.3 nM | Cn1nnc(-c2ccccc2-c2nc3cc(-c4cnc(N)nc4)ccc3n2C(C)(C)C)n1 [5-{1-tert-Butyl-2-[2-(2-methyl-2H-tetrazol-5-yl)-phenyl]-1H-benzimidazol-5-yl}-pyrimidin-2-ylamine]
29 | 1.5 nM | COc1ccc(-n2cccn2)c(-c2nc3cc(-c4cnc5c(c4)CCN5)ccc3n2C(C)(C)C)c1 [1-tert-Butyl-5-(2,3-dihydro-1H-pyrrolo[2,3-b]pyridin-5-yl)-2-(5-methoxy-2-pyrazol-1-yl-phenyl)-1H-benzimidazole]
30 | 2.4 nM | CC(C)(C)n1c(-c2ccccc2-c2ccno2)nc2cc(-c3cnc(N)nc3)ccc21 [5-[1-tert-butyl-2-(2-isoxazol-5-yl-phenyl)-1H-benzoimidazol-5-yl]-pyrimidin-2-ylamine]
31 | 1.8 nM | Cc1ccn(-c2ccc(C#N)cc2-c2nc3cc(-c4cnc(N)nc4)ccc3n2C(C)(C)C)n1 [3-[5-(2-Amino-pyrimidin-5-yl)-1-tert-butyl-1H-benzoimidazol-2-yl]-4-(3-methyl-pyrazol-1-yl)-benzonitrile]
32 | 1.7 nM | Cc1ccc(-n2cnc(C)n2)c(-c2nc3cc(-c4cnc(N)nc4)ccc3n2C(C)(C)C)c1
